Laboratory results published in US20240238423A9, “TETRAHYDROISOQUINOLINE HETEROBIFUNCTIONAL BCL-XL DEGRADERS” (Treeline Biosciences, Inc., priority 2022, published 2024).
Where two headings read alike, the source gives them in different places.

Biological target: T1, Human BCL-XL protein (N-terminal HiBiT tagged BCL-XL in HT1080 cells) (Homo sapiens, UniProt Q07817)
T1 construct: expressed in transfected cells; host or cells: HT-1080 (ATCC CCL-121), stably transduced with lentivirus pLV-UBC-N-HiBiT-BCL-XL-PGK-puro and selected with puromycin
Assay: HiBiT based degradation assay
Type: cell-based
Conditions: HT1080 cells expressing HiBiT-BCL-XL; for Ymin (6 h) / Ymin (24 h): BCL-XL degradation normalized with DMSO control; for DC50: BCL-XL degradation
Outline: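 This HiBiT degradation assay measured loss of BCL-XL in HT1080 cells that stably express an N-terminal HiBiT-BCL-XL fusion delivered by lentivirus. Cells were added to compound-spotted 384-well plates, and luminescence was read on a PHERAstar FSX reader. Signal was expressed relative to DMSO controls, curves were fitted by four-parameter logistic regression, and for hook-shaped curves the Ymin point served as the bottom plateau when calculating EC50.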

T1 sequence (Q07817 whole entry): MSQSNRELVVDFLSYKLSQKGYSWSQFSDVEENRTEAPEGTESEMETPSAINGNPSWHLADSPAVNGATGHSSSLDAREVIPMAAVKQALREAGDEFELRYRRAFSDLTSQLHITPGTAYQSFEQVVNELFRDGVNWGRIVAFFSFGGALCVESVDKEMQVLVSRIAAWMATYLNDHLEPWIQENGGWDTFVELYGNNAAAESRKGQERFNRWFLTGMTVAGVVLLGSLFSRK

Row | Ymin (6 h) | Ymin (24 h) | DC50 (6 h, read-out: EC50 (6 h)) [nM] | DC50 (24 h, read-out: EC50 (24 h)) [nM] | SMILES
1 | C (Ymin ≥ 70%) | B (50% ≤ Ymin < 70%) | 1000 to 10000 | 100 to 1000 | Cc1c(OCCCN2CCN(CC(=O)Nc3cccc4c(C5CCC(=O)NC5=O)nn(C)c34)[C@@H](C(F)(F)F)C2)cccc1-c1ccc(N2CCc3cccc(C(=O)Nc4nc5ccccc5s4)c3C2)nc1C(=O)O (stereo partly drawn) [Compound 218a, 6-(8-(benzo[d]thiazol-2-ylcarbamoyl)-3,4-dihydroisoquinolin-2(1H)-yl)-3-(3-(3-((3R)-4-(2-((3-(2,6-dioxopiperidin-3-yl)-1-methyl-1H-indazol-7-yl)amino)-2-oxoethyl)-3-(trifluoromethyl)piperazin-1-yl)propoxy)-2-methylphenyl)picolinic acid]
2 | – | B (50% ≤ Ymin < 70%) | – | < 100 | Cc1c(OCCCC2CCN([C@H](C)C(=O)Nc3cccc4c(C5CCC(=O)NC5=O)nn(C)c34)CC2)cccc1-c1ccc(N2CCc3cccc(C(=O)Nc4nc5ccccc5s4)c3C2)nc1C(=O)O (stereo partly drawn) [Compound 216b, 6-(8-(benzo[d]thiazol-2-ylcarbamoyl)-3,4-dihydroisoquinolin-2(1H)-yl)-3-(3-(3-(1-((2R)-1-((3-(2,6-dioxopiperidin-3-yl)-1-methyl-1H-indazol-7-yl)amino)-1-oxopropan-2-yl)piperidin-4-yl)propoxy)-2-methylphenyl)picolinic acid]
3 | – | A (Ymin < 50%) | – | < 100 | Cc1c(O[C@H]2CC[C@H](CCCN3CCN(c4ccc5c(C6CCC(=O)NC6=O)nn(C)c5c4)C[C@H]3C(F)(F)F)CC2)cccc1-c1ccc(N2CCc3cccc(C(=O)Nc4nc5ccccc5s4)c3C2)nc1C(=O)O (stereo partly drawn) [Compound 347b, 6-(8-(benzo[d]thiazol-2-ylcarbamoyl)-3,4-dihydroisoquinolin-2(1H)-yl)-3-(3-(((1r,4r)-4-(3-((2S)-4-(3-(2,6-dioxopiperidin-3-yl)-1-methyl-1H-indazol-6-yl)-2-(trifluoromethyl)piperazin-1-yl)propyl)cyclohexyl)oxy)-2-methylphenyl)picolinic acid]
4 | – | A (Ymin < 50%) | – | < 100 | Cc1c(OCCCC2CC3(C2)CN(CC(=O)Nc2ccc4c(C5CCC(=O)NC5=O)nn(C)c4c2)C3)cccc1-c1ccc(N2CCc3cccc(C(=O)Nc4nc5ccccc5s4)c3C2)nc1C(=O)O (stereo not drawn) [Compound 286, 6-[8-(1,3-benzothiazol-2-ylcarbamoyl)-3,4-dihydro-1H-isoquinolin-2-yl]-3-[3-[3-[2-[2-[[3-(2,6-dioxo-3-piperidyl)-1-methyl-indazol-6-yl]amino]-2-oxo-ethyl]-2-azaspiro[3.3]heptan-6-yl]propoxy]-2-methyl-phenyl]pyridine-2-carboxylic acid]
5 | – | A (Ymin < 50%) | – | < 100 | Cc1c(O[C@H]2CC[C@H](CCCN3CCC(c4cccc5c(C6CCC(=O)NC6=O)nn(C)c45)CC3)CC2)cccc1-c1ccc(N2CCc3cccc(C(=O)Nc4nc5ccccc5s4)c3C2)nc1C(=O)O (stereo partly drawn) [Compound 270a, 6-(8-(benzo[d]thiazol-2-ylcarbamoyl)-3,4-dihydroisoquinolin-2(1H)-yl)-3-(3-(((1s,4r)-4-(3-(4-(3-(2,6-dioxopiperidin-3-yl)-1-methyl-1H-indazol-7-yl)piperidin-1-yl)propyl)cyclohexyl)oxy)-2-methylphenyl)picolinic acid]
6 | – | B (50% ≤ Ymin < 70%) | – | < 100 | Cc1c(O[C@H]2CC[C@H](CC(=O)N3CCN(c4ccc5c(C6CCC(=O)NC6=O)nn(C)c5c4)CC3)CC2)cccc1-c1ccc(N2CCc3cccc(C(=O)Nc4nc5ccccc5s4)c3C2)nc1C(=O)O (stereo partly drawn) [Compound 176a, 6-(8-(benzo[d]thiazol-2-ylcarbamoyl)-3,4-dihydroisoquinolin-2(1H)-yl)-3-(3-(((1r,4r)-4-(2-(4-(3-(2,6-dioxopiperidin-3-yl)-1-methyl-1H-indazol-6-yl)piperazin-1-yl)-2-oxoethyl)cyclohexyl)oxy)-2-methylphenyl)picolinic acid]
7 | C (Ymin ≥ 70%) | C (Ymin ≥ 70%) | 1000 to 10000 | 1000 to 10000 | Cc1c(O[C@H]2CC[C@H](CCC(=O)Nc3ccc4c(C5CCC(=O)NC5=O)nn(C)c4c3)CC2)cccc1-c1ccc(N2CCc3cccc(C(=O)Nc4nc5ccccc5s4)c3C2)nc1C(=O)O (stereo partly drawn) [Compound 125a, 6-(8-(benzo[d]thiazol-2-ylcarbamoyl)-3,4-dihydroisoquinolin-2(1H)-yl)-3-(3-(((1r,4r)-4-(3-((3-(2,6-dioxopiperidin-3-yl)-1-methyl-1H-indazol-6-yl)amino)-3-oxopropyl)cyclohexyl)oxy)-2-methylphenyl)picolinic acid]
8 | B (50% ≤ Ymin < 70%) | B (50% ≤ Ymin < 70%) | < 100 | < 100 | Cc1c(OCCOC2CCN(CC(=O)Nc3ccc4c(C5CCC(=O)NC5=O)nn(C)c4c3)CC2)cccc1-c1ccc(N2CCc3cccc(C(=O)Nc4nc5ccccc5s4)c3C2)nc1C(=O)O (stereo not drawn) [Compound 238, 6-(8-(benzo[d]thiazol-2-ylcarbamoyl)-3,4-dihydroisoquinolin-2(1H)-yl)-3-(3-(2-((1-(2-((3-(2,6-dioxopiperidin-3-yl)-1-methyl-1H-indazol-6-yl)amino)-2-oxoethyl)piperidin-4-yl)oxy)ethoxy)-2-methylphenyl)picolinic acid]
9 | – | A (Ymin < 50%) | – | < 100 | Cc1c(O[C@H]2CC[C@H](CCCCN3CCC(c4cccc5c(C6CCC(=O)NC6=O)nn(C)c45)CC3)CC2)cccc1-c1ccc(N2CCc3cccc(C(=O)Nc4nc5ccccc5s4)c3C2)nc1C(=O)O (stereo partly drawn) [Compound 298a, 6-(8-(benzo[d]thiazol-2-ylcarbamoyl)-3,4-dihydroisoquinolin-2(1H)-yl)-3-(3-(((1s,4r)-4-(4-(4-(3-(2,6-dioxopiperidin-3-yl)-1-methyl-1H-indazol-7-yl)piperidin-1-yl)butyl)cyclohexyl)oxy)-2-methylphenyl)picolinic acid]
10 | B (50% ≤ Ymin < 70%) | B (50% ≤ Ymin < 70%) | < 100 | < 100 | Cc1cc(OCCCC2CCN(CC(=O)Nc3cccc4c(C5CCC(=O)NC5=O)nn(C)c34)CC2)ccc1-c1ccc(N2CCc3cccc(C(=O)Nc4nc5ccccc5s4)c3C2)nc1C(=O)O (stereo not drawn) [Compound 236, 6-(8-(Benzo[d]thiazol-2-ylcarbamoyl)-3,4-dihydroisoquinolin-2(1H)-yl)-3-(4-(3-(1-(2-((3-(2,6-dioxopiperidin-3-yl)-1-methyl-1H-indazol-7-yl)amino)-2-oxoethyl)piperidin-4-yl)propoxy)-2-methylphenyl)picolinic acid]
11 | – | A (Ymin < 50%) | – | < 100 | Cc1c(OC[C@@H]2CCC3(CCN(CC(=O)Nc4ccc5c(C6CCC(=O)NC6=O)nn(C)c5c4)CC3)C2)cccc1-c1ccc(N2CCc3cccc(C(=O)Nc4nc5ccccc5s4)c3C2)nc1C(=O)O (single isomer, unassigned) [Compound 262b]
12 | – | A (Ymin < 50%) | – | < 100 | Cc1c(O[C@H]2CC[C@H](CCCCN3CCC(Oc4ccc5c(C6CCC(=O)NC6=O)nn(C)c5c4)CC3)CC2)cccc1-c1ccc(N2CCc3cccc(C(=O)Nc4nc5ccccc5s4)c3C2)nc1C(=O)O (stereo partly drawn) [Compound 326a, 6-(8-(benzo[d]thiazol-2-ylcarbamoyl)-3,4-dihydroisoquinolin-2(1H)-yl)-3-(3-(((1s,4r)-4-(4-(4-((3-(2,6-dioxopiperidin-3-yl)-1-methyl-1H-indazol-6-yl)oxy)piperidin-1-yl)butyl)cyclohexyl)oxy)-2-methylphenyl)picolinic acid]

Row | SMILES | Ymin (6 h) | Ymin (24 h) | DC50 (6 h, read-out: EC50 (6 h)) [nM] | DC50 (24 h, read-out: EC50 (24 h)) [nM]
13 | Cc1c(OCCO[C@@H]2C[C@H]3CC[C@@H](C2)N3CC(=O)Nc2cccc3c(C4CCC(=O)NC4=O)nn(C)c23)cccc1-c1ccc(N2CCc3cccc(C(=O)Nc4nc5ccccc5s4)c3C2)nc1C(=O)O (stereo partly drawn) [Compound 224a, 6-(8-(benzo[d]thiazol-2-ylcarbamoyl)-3,4-dihydroisoquinolin-2(1H)-yl)-3-(3-(2-(((1R,3s,5S)-8-(2-((3-(2,6-dioxopiperidin-3-yl)-1-methyl-1H-indazol-7-yl)amino)-2-oxoethyl)-8-azabicyclo[3.2.1]octan-3-yl)oxy)ethoxy)-2-methylphenyl)picolinic acid] | C (Ymin ≥ 70%) | B (50% ≤ Ymin < 70%) | 1000 to 10000 | < 100
14 | Cc1c(OCCCC[C@@H]2CCCN(CC(=O)Nc3ccc4c(C5CCC(=O)NC5=O)nn(C)c4c3)C2)cccc1-c1ccc(N2CCc3cccc(C(=O)Nc4nc5ccccc5s4)c3C2)nc1C(=O)O (stereo partly drawn) [Compound 202b, 6-[8-(1,3-benzothiazol-2-ylcarbamoyl)-3,4-dihydro-1H-isoquinolin-2-yl]-3-[3-[4-[(3R)-1-[2-[[3-(2,6-dioxo-3-piperidyl)-1-methyl-indazol-6-yl]amino]-2-oxo-ethyl]-3-piperidyl]butoxy]-2-methyl-phenyl]pyridine-2-carboxylic acid] | – | A (Ymin < 50%) | – | < 100
15 | Cc1c(OCCCCCCCN2CCN(c3cccc4c(C5CCC(=O)NC5=O)nn(C)c34)CC2)cccc1-c1ccc(N2CCc3cccc(C(=O)Nc4nc5ccccc5s4)c3C2)nc1C(=O)O (stereo not drawn) [Compound 206, 6-[8-(1,3-benzothiazol-2-ylcarbamoyl)-3,4-dihydro-1H-isoquinolin-2-yl]-3-[3-[7-[4-[3-(2,6-dioxo-3-piperidyl)-1-methyl-indazol-7-yl]piperazin-1-yl]heptoxy]-2-methyl-phenyl]pyridine-2-carboxylic acid] | C (Ymin ≥ 70%) | B (50% ≤ Ymin < 70%) | 1000 to 10000 | < 100
